Results as given in PubChem BioAssay (NCI).
Where “and” joins values, the source holds several entries; their conditions need not be identical. Identical values can stand only once.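 Results reflect a 48-hour exposure of cells in 96-well plates to compound at five concentrations. Abbreviation: GI50, concentration required for 50% inhibition of growth. TGI denotes the concentration required for complete inhibition of growth.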

test system: MDA-MB-468 breast; assay: NCI anticancer screen, dose series, 48 h

Question: With `CC(=O)O[C@H]1C(=O)[C@@]2(C)[C@H]([C@H](OC(=O)c3ccccc3)[C@]3([O-])C[C@H](OC(=O)[C@H]([O-])[C@@H](NC(=O)c4ccccc4)c4ccccc4)C(C)=C1C3(C)C)[C@]1(OC(C)=O)CO[C@@H]1C[C@@H]2[O-].[Fe+3]` as the molecule, how does the GI50 read?
Answer: 0.0351 µM and 0.0363 µM

Question: Which GI50 does the source give for `CCN(CCO)CCNc1ccc(C)c2sc3cc(Cl)ccc3c(=O)c12` here?
Answer: 1.29 µM

Question: What about the TGI of the same molecule?
Answer: 2.78 µM

Question: With `O=C(Nc1cc(-c2ccccc2)[nH]n1)c1ccc(Cl)cc1` as the molecule, how does the GI50 read?
Answer: > 100 µM

Question: What about the TGI of the same molecule?
Answer: > 100 µM

Question: How did the GI50 turn out when `Cc1sc(C)c(-c2ccc(CO)o2)c1-c1ccc(CO)o1` was run?
Answer: 0.0178 µM

Question: And the TGI?
Answer: 0.0501 µM

Question: Which GI50 does the source give for `CNC(=O)c1cn(C[C@H](F)CCc2ccc(NC(=O)Cc3cc(OC4CC(F)(F)C4)cc(C)n3)nn2)nn1` here?
Answer: > 100 µM

Question: What about the TGI of the same molecule?
Answer: > 100 µM

Question: Which GI50 does the source give for `CCCCCC(=O)Oc1ccc(/C(=C(\C)c2ccc(OC)cc2)c2ccc(OCCN3CCCCC3)cc2)cc1` here?
Answer: 4.02 µM

Question: And the TGI?
Answer: 15.8 µM

Question: For `CCCSc1cc(Cl)nc(N)n1`, which GI50 is on record?
Answer: 85.8 µM

Question: What about the TGI of the same molecule?
Answer: > 100 µM

Question: `C=C(C)[C@@H]1CC[C@@]2(C(=O)O)CC[C@]3(C)C(CCC4[C@@]5(C)CCC(OS(=O)(=O)c6ccccc6)C(C)(C)C5CC[C@]43C)C12` (stereo partly drawn) was tested. Which GI50 did it give?
Answer: 2.76 µM

Question: What about the TGI of the same molecule?
Answer: 22.6 µM

Question: Which GI50 does the source give for `CC1=C(C)C(=O)O[C@@H]([C@](C)(O)[C@]2(O)CC[C@@]3(O)[C@@H]4C[C@H]5O[C@]56CC=CC(=O)[C@]6(C)[C@H]4CC[C@]23C)C1` here?
Answer: 0.119 µM

Question: And the TGI?
Answer: 0.725 µM

Question: Which GI50 does the source give for `CNC(=O)c1cc(Oc2ccc(NC(=O)Nc3ccc(Cl)c(OC(F)(F)F)c3)c(F)c2)ccn1` here?
Answer: 1.02 µM

Question: And the TGI?
Answer: 4.77 µM

Question: With `CN(C)c1nc(-c2cccs2)n2nc(-c3ccc(Cl)cc3)cc2n1` as the molecule, how does the GI50 read?
Answer: 3.1 µM

Question: What about the TGI of the same molecule?
Answer: > 100 µM

Question: Which results are given for `COc1cc(-c2cn(C)c(=O)c(C)c2C)cc(OC)c1CN1CC[C@H](N2CCN(c3ccc(N[C@H]4CCC(=O)NC4=O)cc3F)CC2)C(F)(F)C1`?
Answer: GI50: 7.26 µM; TGI: 22.3 µM

Question: For `C=CC(=O)Nc1cccc(Nc2nc(Nc3ccc(OCCOC)cc3)ncc2F)c1`, which GI50 is on record?
Answer: 0.976 µM

Question: And the TGI?
Answer: 3.89 µM

Question: Which GI50 does the source give for `CCCNCc1cc(C)cc2c1nc(N1CCNCC1)n2Cc1cc(C)c(F)c(C)c1` here?
Answer: 1.88 µM

Question: What about the TGI of the same molecule?
Answer: 3.71 µM

Question: For `CCNCCOc1ccc(/C(=C(/CC)c2ccc(Cl)cc2)c2ccc(OCCCN(C)C)cc2)cc1`, which GI50 is on record?
Answer: 1.52 µM

Question: What about the TGI of the same molecule?
Answer: 5.35 µM

Question: For `O=C1c2c(c3c4ccc(Br)cc4oc3c3[nH]c4ccccc4c23)C(=O)N1O`, which GI50 is on record?
Answer: 2.38 µM

Question: What about the TGI of the same molecule?
Answer: 8.36 µM

Question: `CCn1c(-c2nonc2N)nc2ccc(F)cc21` was tested. Which GI50 did it give?
Answer: > 25 µM

Question: And the TGI?
Answer: > 25 µM
